* marks the point of attachment. Myristoyl = CCCCCCCCCCCCCC(=O)*
Tests used:
keratin 1 = keratin 1 expression by Western blot in keratinocytes; assay type: cell-based, mice; details: visfatin 0.0001 μg/ml or L-alpha 100 ng/ml, 24 hours after calcium-induced differentiation
Source text: Medium A and B are both EMEM eagle's minimal essential medium from Biological Industries (Israel) containing 8% CHELEX™ treated fetal bovine serum. CHELEX™ is a strong chelator which binds free Ca^2+ and Mg^2+ ions to prevent these ions from being bioavailable to the cultured cells.
Primary skin keratinocytes isolated from the tails of adult mice (7-10 months up to 2 years) were maintained in medium A (MEM) as described above. After 5 days in (medium A), the growth medium in half of the cultured plates was replaced with medium B (as described above)
Next visfatin or L-alpha were each individually added to cells cultured in medium A (FIG. 19A) and cells cultured in medium B (FIG. 19B) as indicated in FIG. 19. The final concentration in the culture medium of visfatin was 0.0001 μg/ml visfatin. The final concentration in the culture medium of L-alpha was 100 ng/ml.
Cell differentiation was induced by elevating calcium from 0.05 mM to 0.12 mM as described above. Twenty-four (24) hours after differentiation cells were harvested and Western Blot analysis was performed. […] Keratin 1 expression was then quantified using standard densitometric methods […]
Cell differentiation was then induced by elevating calcium levels in the culture medium from 0.05 mM to 0.12 mM. […] Expression was assessed using standard Western blotting and densitometry techniques.

PKCα = PKCα activity assay in keratinocytes overexpressing PKCα; assay type: cell-based, murine; details: Formulation A; peptide 1 μM for 15 minutes; PKCα overexpressing cells; relative to controls
Experimental: Transduction of keratinocytes with PKC isoform genes: The culture medium was aspirated and keratinocyte cultures were infected with PKC recombinant adenoviruses encoding specific PKC isoforms such as PKCα for one hour. The cultures were then washed twice with MEM and re-fed. Ten hours post-infection cells were transferred to serum-free low Ca^2+-containing MEM for 24 hours.
PKC activity: Specific PKC activity was determined in freshly prepared immunoprecipitates from keratinocyte cultures following appropriate treatments. These lysates were prepared in RIPA buffer without NaF. Activity was measured using the SignaTECT Protein Kinase C Assay System (Promega, Madison, Wis., USA) according to the manufacturer's instructions. PKCα pseudosubstrate was used as the substrate in these studies.
PKC immunokinase assay: Purified and standardized PKC isozymes were kindly supplied by Dr. P. Blumberg (NCl, NIH, U.S.) and Dr. Marcello G. Kazanietz (University of Pennsylvania, School of Medicine). Primary keratinocytes were harvested in 500 μl […] (1% Triton-X 100, 10 μg/ml aprotinin and leupeptin, 2 μg/ml pepstatin, 1 mM PMSF, 1 mM EDTA, 200 μM […], 10 mM NaF in 1×PBS). Lysates were incubated at 4° C. for 30 minutes, and spun at 16,000×g for 30 minutes at 4° C. Supernatants were transferred to a fresh tube. […]

[1] = test system: full thickness skin incisions; assay: incision wound healing in mice, percent of healed wounds; assay type: in vivo, C57BL/6J mice; details: agent alone, all formulations (A-C); daily, 7 days; vs groups treated with formulations alone; listed as pseudosubstrate peptide
Experimental: In vivo incision wound generation and inducement of inflammation: Full thickness (20 mm long) skin incisions were performed on the upper back of anesthetized C57BL/6J mice (6 mice per group). […] the incision, wounds were treated daily with insulin (10^−6 M; 0.1 units/ml); pseudosubstrate PKCα peptide, 1 μM (PKCα inhibitor); or Insulin+PKCα inhibitor (Myr-pseudosubstrate PKCα peptide, 1 μM and insulin 0.1 units) applied directly on the wounds in the various formulations (Formulations A-C) as described above. After 7 days, wounds were excised and the percentage of healed wounds was evaluated by examining the morphology and histology of the wounds. Results are presented as percent of healed wounds relative to the total number of wounds per group. […] Full thickness (20 mm long) skin incisions were performed on the upper back of anesthetized C57BL/6J mice (6 mice per group). […] After 7 days, wounds were excised and the percentage of healed wounds was evaluated by examining the morphology and histology of the wounds. […]

[2] = test system: full thickness skin incisions; assay: severe inflammatory burden at incision wounds in mice; assay type: in vivo, C57BL/6J mice; details: peptide 1 μM daily, 7 days
Experimental: Full thickness (20 mm long) skin incisions were performed on the upper back of anesthetized C57BL/6J mice (6 mice per group). Following incisions, wounds were treated daily with Myr-pseudosubstrate PKCα peptide, 1 μM applied directly on the wounds in the various formulations (Formulation A-C) described above.
(§1) After 7 days, wounds were excised and subjected to histology and immunohistochemistry. Inflammatory burden was considered severe when at least 2 of the 3 following parameters were present at the wound gap: (1) Abscess formation at the wounded area, (2) excessive leukocytosis (>100 cells in a fixed field×200), (3) high WBC/RBC ratio in blood vessels where >20% of WBC content within the blood vessels is shown in a fixed field (×200). Results are summarized and presented as percent of wounds with severe inflammation relative to the number of wounds in the group.
as §1, with “Full thickness (20 mm long) skin incisions were performed on the upper back of anesthetized C57BL/6J mice (6 mice per group). Following incision, wounds were treated daily with PKCα inhibitor (Pseudosubstrate PKCα peptide, 1 μM) applied directly to the wounds in the various formulations (Formulation A-C) described above. After” for “After”, “per total” for “relative to the number of”

Compound | expression of keratin 1 (keratin 1; medium A (no KCl)) | expression of keratin 1 (keratin 1; medium B (KCl 0.4 mg/ml)) | inhibition of PKCα activity (PKCα) | healing of wounds (percent of healed wounds) [1] | severe inflammation (percent of wounds with severe inflammation) ([2]; Formulation A) | severe inflammation (percent of wounds with severe inflammation) ([2]; Formulation B) | severe inflammation (percent of wounds with severe inflammation) ([2]; Formulation C)
CCCCCCCCCCCCCCCC(=O)OC[C@H](COP(=O)(O)OC1C(O)C(OP(=O)(O)O)C(OP(=O)(O)O)C(OP(=O)(O)O)C1O)OC(=O)CCCCCCCCCCCCCCC.N.N.N.N.N.N.N (stereo partly drawn) [L-alpha, L-α-Phosphatidylinositol-3,4,5-trisphosphate, Dipalmitoyl-, Heptaammonium Salt] | decreased relative to the control sample | not significantly altered | – | – | – | – | –
Myr*-Phe-Ala-Arg-Lys-Gly-Ala-Leu-Arg-Gln-OH (Myristoyl-FARKGALRQ-OH; SMILES CCCCCCCCCCCCCC(=O)N[C@@H](Cc1ccccc1)C(=O)N[C@@H](C)C(=O)N[C@@H](CCCNC(=N)N)C(=O)N[C@@H](CCCCN)C(=O)NCC(=O)N[C@@H](C)C(=O)N[C@@H](CC(C)C)C(=O)N[C@@H](CCCNC(=N)N)C(=O)N[C@@H](CCC(N)=O)C(=O)O) [PKCα inhibitor, myristoylated peptide corresponding to the pseudosubstrate region of PKCα, CAS 147217-25-2] | – | – | able to significantly inhibit PKCα activity | did not promote wound healing efficacy | significant reduction in severe inflammation | No reduction in inflammatory burden | No reduction in inflammatory burden

— US20100310542A1, “Pharmaceutical Compositions for treating wouds and related methods” (HEALOR LTD., priority 2007, published 2010)
